Test results from ChEMBL document CHEMBL3870365, “Development of 4-Heteroarylamino-1'-azaspiro[oxazole-5,3'-bicyclo[2.2.2]octanes] as α7 Nicotinic Receptor Agonists” (ACS Med Chem Lett, 2017).

Tests used:
in vivo [1] = settings: C57BL/6, mouse, plasma, sc, 0.01 mg/kg
[2] = mouse, in vivo, sc, 0.01 mg/kg, 0.5 h
in vivo [3] = settings: C57BL/6, mouse, brain/plasma, sc, 0.01 mg/kg
[4] = Plasma concentration in C57BL/6 mouse at 0.03 mg/kg, sc after 30 mins; format: ADME, organism-based
[5] = Ratio of drug level in brain to plasma in C57BL/6 mouse at 0.03 mg/kg, sc after 30 mins; format: ADME, organism-based; settings: read-out: BPR
[6] = Fraction unbound in C57BL/6 mouse plasma at 0.03 mg/kg, sc after 30 mins; format: ADME, organism-based; settings: in vivo, 0.5 h

With Brc1ccc2c(NC3=NC[C@@]4(CN5CCC4CC5)O3)ncnn12 the concentration at 0.5 h (in vivo [1]) was 0.007 µM, the Cp(f) [2] was 50 to 75% and the Kp at 0.5 h (in vivo [3]) was 4.9.
Work on Clc1ccc2c(NC3=NC[C@@]4(CN5CCC4CC5)O3)ncnn12 yielded a concentration at 0.5 h [4] of 0.018 µM, a Kp at 0.5 h [5] of 1.9 and a Cp(f) [6] of 50 to 75%.
